According to ChEMBL document CHEMBL6109062, “Novel tertiary diarylethylamines as functionally selective agonists of the kappa opioid receptor” (Bioorg Med Chem Lett, 2025):

Legend:
in vitro [1] = settings: human, liver microsomes
in vitro [2] = settings: human, hepatocytes
in vitro [3] = settings: rat, liver microsomes
[4] = Clearance in rat; assay type: ADME; settings: in vivo
in vivo [5] = settings: rat, po
in vitro [6] = settings: dog, MDCK-MDR1
in vivo [7] = settings: rat, po, 10 mg/kg
in vivo [8] = settings: rat, po, 10 mg/kg; remark: listed apart in the source
in vitro [9] = settings: rat, liver microsomes; remark: listed apart in the source

Row | Structure (SMILES) | remaining at 0.25 h (in vitro [1]) [%] | hepatocyte CLint (in vitro [2]) [µL/min/1e6 cells] | remaining at 0.25 h (in vitro [3]) [%] | clearance [4] [mL/min/kg] | bioavailability (in vivo [5]) [%] | Papp A→B (in vitro [6]) [×10⁻⁶ cm/s] | half-life (in vivo [7]) [h] | bioavailability (in vivo [8]) [%] | remaining at 0.5 h (in vitro [9]) [%]
1 | Oc1cccc(CCN(CCc2ccccc2)CC2CCC2)c1 | < 5 | – | – | – | – | – | – | – | –
2 | CC(Cc1ccc2nc[nH]c2c1)N(CCc1ccccc1)CC1CC1 (stereo unspecified) | 70 | 22.1 | 10 | – | – | – | – | – | –
3 | O=c1[nH]c2ccc(CCN(CCc3ccccc3)CC3CCC3)cc2[nH]1 | 66 | – | < 5 | – | – | – | – | – | –
4 | Oc1cccc(CCN(CC2CCC2)C2CN(Cc3ccccc3)C2)c1 | < 5 | – | – | 45 | < 1 | – | – | – | –
5 | c1ccc(CCN(CCc2ccc3nc[nH]c3c2)CC2CC2)cc1 | 77 | 16.7 | < 5 | – | – | 5.5 | 1.2 | 2.7 | 3
